Test results taken from patent US20200390767A1, “Formulations of 4-(7-Hydroxy-2-isopropyl-4-oxo-4H-quinazolin-3-yl)-benzonitrile” (NOVARTIS AG, priority 2019, published 2020).
“And” between values parts separate entries of the source, which are not always exact repeats. Identical values can stand only once. Like-named read-outs stand apart in the source and are kept apart here.

Assays:
[1] = Pharmacokinetic study of exploratory formulations, single bilateral topical ocular dosing; format: in vivo; details: NZW rabbits
Experimental: A pharmacokinetics study was conducted to determine the ocular uptake of compound I following single bilateral topical ocular dosing of male NZW rabbits with the four exploratory formulations provided in Table 2: FID 121522, FID 121511, FID 121512, FID 121513.

[2] = system: temperature sensitivity; assay: First in human study, hand immersion test at 49° C.; format: in vivo; details: water at 49° C., MAD part
Experimental: Safety assessments: Safety assessments consisted of collecting all adverse events (AEs), serious adverse events (SAEs), including systemic and ocular adverse events, along with their severity and relationship to study drug. Systemic safety assessments included regular monitoring of hematology, blood chemistry and urinalysis performed at study center and regular assessments of physical examination, vital signs (systolic and diastolic blood pressure, pulse rate, and body temperature), ECG, pregnancy and assessments of fertility and hand immersion test at 49° C. during MAD part. Ocular safety assessments included early treatment diabetic retinopathy study (ETDRS) visual acuity, intraocular pressure, slit-lamp biomicroscopy, corneal staining and dilated fundus exam.
For the hand immersion test, all subjects in the treatment cohorts withdrew their hand from water at 49° C. at a time interval between 0 to ≤50 secs.

[3] = PRK clinical study, residual compound I in bandage contact lens; format: in vivo, human; details: Day 4; for concentration at 4 day: human, bandage contact lens extract, topical, 0.925 mg, 0.55 mL extraction fluid
Experimental: Compound I was quantified in plasma using a validated LC-MS/MS method; the lower limit of quantification (LLOQ) was 0.05 ng/mL. Concentrations were expressed in ng per mL units. When feasible, bandage contact lenses (BCL) exposed to study drug were collected and analyzed for residual drug exposure after treatment (LLOQ: 5.00 ng/mL in 0.55 mL of extraction fluid, or 2.75 ng/BCL). Concentrations below the LLOQ were reported as “zero” and missing data were labeled as such.
Bandage Contact Lens (BCL) was collected from 40 patients on Day 4 of the dose administration and analyzed for compound I. Values from the three IMP non-compliant patients were excluded from BCL summary statistics, leaving 37 values evaluable, including one value from a patient without available plasma PK. The mean concentration of compound I (CV %) in 0.55 mL extraction fluid was 8500 ng/mL (73.1%), with a wide range of 284 to 22600 ng/mL. These concentrations translate to an estimated mean of 4680 ng/lens (0.55 mL×8500 ng/mL), and a range of 156 to 12400 ng/lens. The amount in BCL was very small in relation to the 0.925 mg dose of compound I administered: mean 0.51%, and range of 0.017% to 1.3% of dose.

[4] = system: PRK surgery patients; assay: PRK clinical study, adverse events; format: in vivo, human
Description: Safety assessments consisted of collecting all AEs, SAES, with their severity and relationship to study drug. Only signs and symptoms greater than the listed ranges of either severity or duration were reported as AEs.
(§1) Adverse events and serious adverse events included an assessment of both systemic and ocular assessments. Systemic safety assessments included regular assessments of height and weight, vital signs, reporting medication errors including misuse/abuse, pregnancy reporting and early phase safety monitoring. The misuse/abuse, pregnancy reporting and early phase safety monitoring were not assessed for the study. Ocular safety assessments included the following: • Best-corrected visual acuity (BCVA) and uncorrected visual acuity (UCVA): Was measured at each visit using an ETDRS visual acuity chart at 4 meters (13 feet) or 1 meter (for patients that cannot read the 4 meter chart). The BCVA scoring was done based on the number of correctly read letters plus 30. If visual acuity was so poor that the patient could not read any of the largest letters at 1 meter, count fingers and hand movement vision and light perception was tested. • Intraocular Pressure (TOP): IOP measurements were conducted with applanation tonometry or Tonopen. • Dilated fundus exam: The dilated fundus examination included ophthalmoscopic assessments of the vitreous, retina/macula/choroid, and optic nerve. Evaluations for retinal tear/detachment, retinal hemorrhage, vitreous hemorrhage density, vitreous haze grading and abnormal findings were done and scored according to grading criteria. • Ocular hyperemia: Conjunctival redness of the bulbar conjunctiva in each eye at the slit lamp according to the McMonnies redness scale was graded. […] By adjusting the calibrated slit beam width and height, the maximum horizontal (wound width) and vertical dimensions (wound height) of the surgical epithelial wound was estimated. The evaluation was performed until wound closure and report of wound size as 0 horizontal and 0 vertical dimensions. • Slit-lamp biomicroscopy: Ocular signs (eyelids/conjunctiva, cornea, lens, and iris/anterior chamber) was assessed in both eyes by slit lamp biomicroscopy according to the grading criteria. • Blink rate: A blink was defined as a bilateral paroxysmal closure of the eyelids (duration <1 second) in the absence of a provoking external stimulus. Each blink assessment lasted for 2 min (or as close to 2 minutes as possible with minimum time 1 minute) and the obtained blink rate was averaged to calculate blink rate in blinks/min. • Tear production (Schirmer's test without anesthesia): The test was performed without anesthetic in both eyes simultaneously. Tear secretion was measured in millimeters of the length of strip wetted by tears. […] The strip was wetted with 1 drop of sterile saline and flicked to remove excess saline. The patient blinked several times to ensure dispersion of the dye throughout the tear film prior to grading on a scale of 0-3 (0=Normal, No staining; 1=Mild, Superficial stippling micropunctate staining; 2=Moderate, Macropunctate staining with some coalescent areas and 3=Severe, Numerous coalescent macropunctate areas and/or patches) for each of 5 zones (central plus 4 quadrants).
A total of 18 AEs were reported in 10 patients (25% of the 40 enrolled patients) of which twelve occurred after treatment with compound I, five after treatment with Vehicle and one occurred in one patient prior to dosing of the study drug. All AEs were either mild or moderate in severity.

[5] = system: epithelial wound; assay: PRK clinical study, size of epithelial defect by slit lamp exam; format: in vivo, human
Description: as §1
Size of epithelial defect by slit lamp exam: In order to assess the rate of wound healing after administration of compound I, the size of the epithelial defect in both compound I and Vehicle treated populations was measured. The elliptical area of epithelial wound size was calculated as follows: Area (mm2)=width×height×pi, from the width and height of the epithelial defect measured at the slit lamp. The difference in epithelial wound area between compound I and Vehicle was not noticeably different at any time point except at Day 2 post-PRK surgery (all p-values for the difference in area was >0.35). On Day 2 (24 hours post-operative), the difference in average epithelial defect area between patients treated with compound I vs. Vehicle was 11.23 mm^2 (p value=0.034). This difference was not clinically significant in the immediate post-operative period. […]

Structure (SMILES): CC(C)c1nc2cc(O)ccc2c(=O)n1-c1ccc(C#N)cc1 [Compound I, 4-(7-hydroxy-2-isopropyl-4-oxo-4H-quinazolin-3-yl)-benzonitrile]
- exposure in cornea relative to aqueous humor and iris-ciliary body [1]: approximately 10 times
- Kp ([1]; male, rabbit, cornea / plasma, topical, read-out: exposure in cornea relative to plasma): ~500
- hand immersion time versus vehicle [2]: no meaningful change in immersion time
- amount in BCL in relation to the 0.925 mg dose, mean [3]: 0.51 % of dose
- estimated mean amount in bandage contact lens [3]: 4680 ng/lens
- concentration at 4 day ([3]; read-out: concentration of compound I in bandage contact lens extract, range): 0.284 to 22.6 µg/mL
- concentration at 4 day ([3]; read-out: mean concentration of compound I in bandage contact lens extract): 8.5 µg/mL
- deaths, SAEs, discontinuations due to AEs ([4]; 40 enrolled patients): no deaths or SAEs
- eyes (treatment periods) with AEs of moderate severity ([4]; five AEs in four patients): four
- patients who experienced an AE only during this treatment ([4]; human, in vivo): Five
- relation of ocular AEs to study drug ([4]; human, in vivo): None of the AEs were suspected to be related
- patients who developed AEs after treatment ([4]; of 40 patients): Eight
- number of AEs after treatment ([4]; of a total of 18 AEs in 10 patients): twelve
- eyes with ocular AEs (mild severity) ([4]; six ocular AEs in four patients): three
- eyes (treatment periods) with non-ocular AEs ([4]; twelve non-ocular AEs in seven patients): six
- Epithelial Wound Size, Area, Difference compound I-Vehicle ([5]; Day 1): 2.98 (27.33) mm^2
- Epithelial Wound Size, Area, raw mean (SD) ([5]; Day 1): 220.15 (32.26) mm^2
- Epithelial Wound Size, Area, Difference compound I-Vehicle ([5]; Day 2): 11.23 mm^2 and 11.23 (32.30) mm^2
- Epithelial Wound Size, Area, raw mean (SD) ([5]; Day 2): 83.02 (32.08) mm^2
- Epithelial Wound Size, Area, Difference compound I-Vehicle ([5]; Day 3): 1.02 (8.78) mm^2
- Epithelial Wound Size, Area, raw mean (SD) ([5]; Day 3): 6.75 (12.66) mm^2
- Epithelial Wound Size, Area, Difference compound I-Vehicle ([5]; Day 4): 0.31 (2.11) mm^2
- Epithelial Wound Size, Area, raw mean (SD) ([5]; Day 4): 0.39 (2.04) mm^2
- Epithelial Wound Size, Area, Difference compound I-Vehicle ([5]; Day 8): 0.00 (0.00) mm^2
- Epithelial Wound Size, Area, raw mean (SD) ([5]; Day 8): 0.00 (0.00) mm^2
- wound healing compared to Vehicle ([5]; human, in vivo): no delay in wound healing
